Reference: article PMC8661032, “Broad-Spectrum Antibacterial Peptide Kills Extracellular and Intracellular Bacteria Without Affecting Epithelialization” (Frontiers in Microbiology, 2021)
In brackets after ≈: the same amount, converted by molar mass. Like-named read-outs stand apart in the source and are kept apart here. Residues, ends and D or L forms follow the SMILES beside them.

Legend:
E. coli K-12 MG1655 = assay: Resistance development assay (serial passage), E. coli; assay type: cell-based, Escherichia coli; conditions: serial passage at sub-MIC in CAMHB, 32 days
Source text: (§1) Bacteria (E. coli K-12 MG1655 and S. aureus ATCC 29213 and SO-SAU19-1) were serial passaged in CAMHB as described by [Silverman et al. (2001)] with some small modifications.

E. faecium = assay: microbe, parasite or virus in culture; conditions: for MIC: Enterococcus faecium
Procedure: (§2) Briefly, bacterial colonies from blood agar plates were suspended and grown in Cation-Adjusted Mueller-Hinton Broth (CAMHB, […] Ca^2+, […] Mg^2+). The bacterial suspension was adjusted to 0.5 McFarland standard (∼1 × 10^8 colony-forming units (CFU)/ml) and serial diluted 1:200 in CAMHB (∼5 × 10^5 CFU/mL). […] The suspension was plated out on blood agar plates to confirm the CFU/ml. Both the microtiter plates and the blood agar plates were incubated at 37°C for 24 h.

E. coli [1] = assay: microbe, parasite or virus in culture; conditions: for MIC: Escherichia coli
Procedure: as §2

E. cloacae = assay: microbe, parasite or virus in culture; conditions: Enterobacter cloacae, 24 h
Procedure: as §2

P. aeruginosa = assay: microbe, parasite or virus in culture; conditions: for MIC: Pseudomonas aeruginosa
Procedure: as §2

K. pneumoniae = assay: microbe, parasite or virus in culture; conditions: for MIC: Klebsiella pneumoniae
Procedure: as §2

E. faecalis = assay: microbe, parasite or virus in culture; conditions: for MIC: Enterococcus faecalis
Procedure: as §2

A. baumannii = assay: microbe, parasite or virus in culture; conditions: for MIC: Acinetobacter baumannii
Procedure: as §2

S. aureus = assay: microbe, parasite or virus in culture; conditions: Staphylococcus aureus
Procedure: as §2

[2] = test system: S. aureus ATCC 29213 and SO-SAU19-1; assay type: cell-based, Staphylococcus aureus
Source text: as §1

E. coli [3] = assay: Growth inhibition assay (OD600 over 24 h); assay type: cell-based, Escherichia coli; set-up: Reduction of viability E. coli (60 μg/ml): key to the marks not given beside the values; conditions: 60 μg/ml peptide, LB medium, OD600 every hour over 24 h, relative to untreated control
Procedure: An overnight culture of Escherichia coli was diluted 1:100 in Luria-Bertani (LB) medium and allowed to grow until an optical density (OD) at 600 nm (OD600) of 0.06–0.1. APIM-peptides were prepared by serial dilution in Milli-Q H2O and kept at 4°C. Fresh LB medium (60 μl) was added to a flat-bottom microtiter plate. The bacterial suspension was diluted 1:100 in LB, and 75 μl of this suspension was added to the wells. Finally, 15 μl of APIM-peptide solution (to final concentrations 60, 120, and 240 μg/ml) or distilled water (positive control) was added to the wells, reaching a total volume of 150 μl per well. Data are presented only for the dose that separated the effect of the different peptides, i.e., 60 μg/ml. A blank sterile medium was used as negative control. The plates were incubated with shaking at 510 rpm at 37°C inside a plate reader (TECAN, Spark®), and OD was read every hour over a period of 24 h.
The MIC for E. coli in LB medium is higher than that in CAMHB; thus, concentrations higher than the MIC given in Table 2 are used in the growth inhibition and mutagenesis assays. […]
E. coli. Growth of E. coli in LB medium over 24 hours (Optical Density (OD) 600 nm) after addition
of APIM-peptide variants 1-5 (60 µg/mL) at time t=0 (see Table 2). Negative (-) control is no
bacteria added, positive (+) control is untreated bacteria.
highest inhibition of growth.
control (black filled line).

HEK293 cells = test system: HEK293 cells
Procedure: HEK293 cells (6,000 cells/well) were seeded in 96-well microtiter plates. After 4 h, APIM-peptides (12–48 μg/ml) were added, and the cells were incubated without change of media for up to 4 days. Viability was measured using the 3-(4,5-dimethylthiazol-2-yl)-2,5-diphenyltetrazolium bromide (MTT) assay as described ([Gilljam et al., 2009]).
(1 picture or pasted object on this page, not shown here)

E. coli [4] = assay: Rifampicin (RifR) mutagenesis assay after UV-C; assay type: cell-based, Escherichia coli
Procedure: The rifampicin (Rif^R) mutagenesis assay was performed as described ([Nedal et al., 2020]). Briefly, an overnight culture of E. coli was diluted 1:1,000 and grown until an OD600 of 0.01. APIM-peptides (20 μg/ml) were added to LB media with glass beads (for uniform distribution of APIM-peptides) and incubated for 30 min at 37°C. The pellets were next collected, resuspended in 500 μl PBS, and exposed to UV-C (20 mJ/cm^2) in a six-well plate at 4°C. The unexposed bacteria (-UV) were otherwise handled exactly like the UV-exposed bacteria. Next, the cells were resuspended in LB media and incubated in a rotary shaker at 37°C at 250 rpm for 2 h before being harvested, diluted, and plated on LB with soft agar with and without rifampicin (100 μg/ml). Mutation frequency, Rif^R/10^8, is obtained as follows: (number of colonies on the rifampicin plate (Rif^R)/(number of colonies on LB plates without antibiotics), per milliliter of bacterial suspension. […]
mutagenesis in E. coli more efficiently than the other peptide variants.
Increase in mutation frequencies after treatment with UV-C (20 mJ/cm2) relative to spontaneous mutations frequencies using the RifR assay were determined. This increase is set to 100% for untreated control, and % reduction after addition of peptides 1-5 (20 μg/mL) are shown. Mean ± SD from three independent experiments. * p<0.05, ** p<0.005

[5] = test system: S. epidermidis MRSE (SO-SEP9-1); conditions: SO-SEP9-1, 24 h
Procedure: as §2

[6] = SO-PAE19-1 (multidrug resistant)

CC1(C)S[C@@H]2[C@H](NC(=O)[C@H](N)c3ccccc3)C(=O)N2[C@H]1C(=O)O [Ampicillin, ampicillin]
increase in MIC relative to day 1 (E. coli K-12 MG1655): ≤ 64 × | Combination effect with 0.5× MIC betatide (E. faecium; CCUG 59167 (vanA+), reduced MIC of antibiotic when combined with 0.5× MIC betatide): None | MIC (E. faecium; 24 h): 2050 µg/mL (≈ 5860 µM) | MIC (E. faecium; CCUG59167, 24 h): 1 µg/mL (≈ 2.86 µM) | Combination effect with 0.5× MIC betatide (E. faecium; SO-EFU19-1 (vanB+)): None | MIC (E. coli [1]; MG1655, read-out: MIC in E. coli): 16 µg/mL (≈ 45.8 µM)

CC(C)(O/N=C(\C(=O)N[C@@H]1C(=O)N2C(C(=O)[O-])=C(C[n+]3ccccc3)CS[C@H]12)c1csc(N)n1)C(=O)O [Ceftazidime, ceftazidime]
MIC (E. cloacae): > 1000 µg/mL | Combination effect with 0.5× MIC betatide (P. aeruginosa; ATCC 27853): None | MIC (P. aeruginosa; 24 h): 128 µg/mL (≈ 234 µM) | MIC (P. aeruginosa; ATCC27853, 24 h): 2 µg/mL (≈ 3.66 µM) | Combination effect with 0.5× MIC betatide (P. aeruginosa; [6]): None

CO/N=C(\C(=O)N[C@@H]1C(=O)N2C(C(=O)O)=C(COC(C)=O)CS[C@H]12)c1csc(N)n1 [Cefotaxime, cefotaxime]
Combination effect with 0.5× MIC betatide (K. pneumoniae; ATCC 13883): Additive 2× | MIC (K. pneumoniae; 24 h): 2050 µg/mL (≈ 4500 µM) | MIC (K. pneumoniae; ATCC13883, 24 h): 0.13 µg/mL (≈ 0.285 µM) | Combination effect with 0.5× MIC betatide (K. pneumoniae; SO-KPN19-1 (ESBL-CARBA-D)): None | MIC (E. cloacae): > 1020 µg/mL

CC(=O)NC[C@H]1CN(c2ccc(N3CCOCC3)c(F)c2)C(=O)O1 [Linezolid, linezolid]
Combination effect with 0.5× MIC betatide (E. faecalis; ATCC 29212): None | MIC (E. faecalis; 24 h): 8 µg/mL (≈ 23.7 µM) | MIC (E. faecalis; ATCC29212, 24 h): 2 µg/mL (≈ 5.93 µM) | Combination effect with 0.5× MIC betatide (E. faecalis; SO-EFA19-1 (optrA+)): None

CNC(C)C1CCC(N)C(OC2C(N)CC(N)C(OC3OCC(C)(O)C(NC)C3O)C2O)O1 (stereo not drawn) [Gentamicin, gentamicin]
Combination effect with 0.5× MIC betatide (A. baumannii; ATCC 19606): None | MIC (A. baumannii; 24 h): > 1000 µg/mL | MIC (A. baumannii; ATCC19606, 24 h): 8 µg/mL (≈ 16.8 µM) | Combination effect with 0.5× MIC betatide (K. pneumoniae; ATCC 13883): Additive 4× | MIC (K. pneumoniae; 24 h): 64 µg/mL (≈ 134 µM) | MIC (K. pneumoniae; ATCC13883, 24 h): 0.5 µg/mL (≈ 1.05 µM) | Combination effect with 0.5× MIC betatide (K. pneumoniae; SO-KPN19-1 (ESBL-CARBA-D)): Additive 4× | MIC (E. cloacae): > 1000 µg/mL | Combination effect with 0.5× MIC betatide (P. aeruginosa; ATCC 27853): None | MIC (P. aeruginosa; 24 h): 16 µg/mL (≈ 33.5 µM) | MIC (P. aeruginosa; ATCC27853, 24 h): 2 µg/mL (≈ 4.19 µM) | Combination effect with 0.5× MIC betatide (P. aeruginosa; [6]): None | MIC (S. aureus; ATCC29213, read-out: MIC in S. aureus ATCC 29213, ATCC 29213, values given in method text): 1 µg/mL (≈ 2.09 µM) | MIC (S. aureus; ATCC29213, read-out: MIC in S. aureus, starting MIC of resistance development assay, CAMHB, strain not differentiated (ATCC 29213 and SO-SAU19-1)): 1 µg/mL | MIC (E. coli [1]; 24 h): > 500 µg/mL | MIC (E. coli [1]; MG1655, 24 h): 0.5 µg/mL (≈ 1.05 µM) | Combination effect with 0.5× MIC betatide (E. coli [1]; MG1655): None | increase in MIC relative to day 1 ([2]; S. aureus ATCC 29213, serial passage, first experiment (parallel 1)): ≤ 256 × | increase in MIC relative to day 1 ([2]; S. aureus SO-SAU19-1 (MRSA), 20 passages): 8 ×

CC[C@H](C)[C@H](NC(=O)CNC(=O)[C@H](CCCCN)NC(=O)[C@@H](NC(=O)[C@H](CC(C)C)NC(=O)[C@H](Cc1c[nH]c2ccccc12)NC(=O)[C@H](CCCNC(=N)N)NC(=O)[C@H](CC(=O)O)NC(=O)[C@H](CCSC)NC(C)=O)C(C)C)C(=O)N[C@@H](CC(C)C)C(=O)N[C@@H](CCC(N)=O)C(=O)N[C@@H](Cc1c[nH]c2ccccc12)C(=O)N[C@@H](CCCNC(=N)N)C(=O)N[C@@H](CCCCN)C(=O)N[C@H](C(=O)N[C@@H](CCCNC(=N)N)C(=O)N[C@@H](CCCNC(=N)N)C(=O)N[C@@H](CCCNC(=N)N)C(=O)N[C@@H](CCCNC(=N)N)C(=O)N[C@@H](CCCNC(=N)N)C(=O)N[C@@H](CCCNC(=N)N)C(=O)N[C@@H](CCCNC(=N)N)C(=O)N[C@@H](CCCNC(=N)N)C(N)=O)[C@@H](C)CC [Peptide 5] (Ac-MDRWLVKGILQWRKIRRRRRRRR-NH2)
Reduction of viability E. coli (60 μg/ml) (E. coli [3]): ++ | Reduction of viability HEK293 (24 μg/ml) (HEK293 cells): + | UV-induced mutation frequencies relative to control (E. coli [4]; 20 μg/mL, UV-C 20 mJ/cm2, RifR assay, three independent experiments): significantly reduced | Reduction of mutation frequency E. coli (20 μg/ml) (E. coli [4]; 20 μg/ml peptide, UV-C 20 mJ/cm^2, RifR assay, relative to untreated control): ++ | MIC S. epidermidis MRSE [5]: 16 µg/mL (≈ 4.95 µM) | MIC E. coli (E. coli [1]; K-12 MG1655, CLSI broth microdilution, CAMHB, 37°C, 24 h, visible growth, net peptide concentration): 16 µg/mL (≈ 4.95 µM)
